Laboratory results from patent publication US10793553B2, “TLR7/8 antagonists and uses thereof” (Merck Patent GmbH, priority 2017, dated 2020).
Where a name gives a salt, the structure may show the parent alone.

How the values were obtained:
TLR7 = target: T1, TLR7 (Homo sapiens, UniProt Q9NYK1); test: HEK TLR7 Cell Assay; assay type: cell-based; conditions: TLR7/NFKb HEK cells, R848 agonist 10 uM final, Steady-Glo readout
T1 construct: expressed in transfected cells; host or cells: HEK cells carrying TLR7 and an NFkB luciferase reporter
T1 sequence (Q9NYK1 27-1049): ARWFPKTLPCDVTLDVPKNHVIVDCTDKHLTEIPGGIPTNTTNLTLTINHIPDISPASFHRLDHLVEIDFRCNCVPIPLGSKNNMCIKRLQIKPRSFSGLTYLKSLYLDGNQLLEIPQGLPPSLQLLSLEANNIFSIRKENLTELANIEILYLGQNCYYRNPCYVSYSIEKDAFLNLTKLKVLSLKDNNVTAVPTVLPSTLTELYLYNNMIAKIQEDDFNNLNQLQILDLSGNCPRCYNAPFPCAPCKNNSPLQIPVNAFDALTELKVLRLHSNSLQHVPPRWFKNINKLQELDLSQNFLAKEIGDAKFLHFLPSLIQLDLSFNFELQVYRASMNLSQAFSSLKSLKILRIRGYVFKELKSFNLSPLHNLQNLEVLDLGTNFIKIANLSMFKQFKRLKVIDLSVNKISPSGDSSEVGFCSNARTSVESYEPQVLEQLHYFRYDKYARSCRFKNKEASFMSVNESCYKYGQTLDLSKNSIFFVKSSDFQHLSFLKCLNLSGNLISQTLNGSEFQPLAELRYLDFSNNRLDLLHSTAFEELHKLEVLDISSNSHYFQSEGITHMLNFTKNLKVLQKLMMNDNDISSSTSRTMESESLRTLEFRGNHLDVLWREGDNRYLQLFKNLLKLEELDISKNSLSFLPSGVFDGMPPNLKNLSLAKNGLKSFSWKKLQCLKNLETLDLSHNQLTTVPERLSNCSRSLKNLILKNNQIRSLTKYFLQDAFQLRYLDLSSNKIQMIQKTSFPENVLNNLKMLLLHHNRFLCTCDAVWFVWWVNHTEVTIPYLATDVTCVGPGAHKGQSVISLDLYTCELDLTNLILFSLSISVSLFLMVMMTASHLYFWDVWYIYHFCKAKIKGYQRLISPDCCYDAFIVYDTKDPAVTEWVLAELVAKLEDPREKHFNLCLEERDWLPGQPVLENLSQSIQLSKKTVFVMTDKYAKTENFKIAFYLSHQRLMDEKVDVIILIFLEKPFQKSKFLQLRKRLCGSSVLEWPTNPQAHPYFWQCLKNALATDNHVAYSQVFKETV
Method: Example 24: HEK TLR7 Cell Assay
(§1) Into 384 CulturePlates (Corning 3707) was placed 5000 c/w of TLR7/NFKb HEK cells in 30 uL DMEM without Phenol red (gibco #31053) and 10% FCS-HI, 2 mM L-Glutamine, 1% Pen/Strept. The cells are incubated for 24 h at 37 degrees Celsius, and 10% carbon dioxide. Dispense 3 uL of controls, standards, and compounds to wells, incubate for 30 min then add 3 uL of R848 (10 uM final concentration) agonist in 20 mM Hepes. Incubate for 5 hours and then allow to stand at room temperature for 15 min. Add 10 uL of Steady-Glo substrate reagent and shake assay plate for 5 min at 1500 rpm. Let the assay plate sit for 30 min at room temperature and then read plate on EnVision.

TLR8 = target: T2, TLR8 (Homo sapiens, UniProt Q9NR97); test: HEK TLR8 Cell Assay; assay type: cell-based; conditions: TLR8/NFKb HEK cells, R848 agonist 30 uM final, Steady-Glo readout
T2 construct: expressed in transfected cells; host or cells: HEK cells carrying TLR8 and an NFkB luciferase reporter
T2 sequence (Q9NR97 27-1041): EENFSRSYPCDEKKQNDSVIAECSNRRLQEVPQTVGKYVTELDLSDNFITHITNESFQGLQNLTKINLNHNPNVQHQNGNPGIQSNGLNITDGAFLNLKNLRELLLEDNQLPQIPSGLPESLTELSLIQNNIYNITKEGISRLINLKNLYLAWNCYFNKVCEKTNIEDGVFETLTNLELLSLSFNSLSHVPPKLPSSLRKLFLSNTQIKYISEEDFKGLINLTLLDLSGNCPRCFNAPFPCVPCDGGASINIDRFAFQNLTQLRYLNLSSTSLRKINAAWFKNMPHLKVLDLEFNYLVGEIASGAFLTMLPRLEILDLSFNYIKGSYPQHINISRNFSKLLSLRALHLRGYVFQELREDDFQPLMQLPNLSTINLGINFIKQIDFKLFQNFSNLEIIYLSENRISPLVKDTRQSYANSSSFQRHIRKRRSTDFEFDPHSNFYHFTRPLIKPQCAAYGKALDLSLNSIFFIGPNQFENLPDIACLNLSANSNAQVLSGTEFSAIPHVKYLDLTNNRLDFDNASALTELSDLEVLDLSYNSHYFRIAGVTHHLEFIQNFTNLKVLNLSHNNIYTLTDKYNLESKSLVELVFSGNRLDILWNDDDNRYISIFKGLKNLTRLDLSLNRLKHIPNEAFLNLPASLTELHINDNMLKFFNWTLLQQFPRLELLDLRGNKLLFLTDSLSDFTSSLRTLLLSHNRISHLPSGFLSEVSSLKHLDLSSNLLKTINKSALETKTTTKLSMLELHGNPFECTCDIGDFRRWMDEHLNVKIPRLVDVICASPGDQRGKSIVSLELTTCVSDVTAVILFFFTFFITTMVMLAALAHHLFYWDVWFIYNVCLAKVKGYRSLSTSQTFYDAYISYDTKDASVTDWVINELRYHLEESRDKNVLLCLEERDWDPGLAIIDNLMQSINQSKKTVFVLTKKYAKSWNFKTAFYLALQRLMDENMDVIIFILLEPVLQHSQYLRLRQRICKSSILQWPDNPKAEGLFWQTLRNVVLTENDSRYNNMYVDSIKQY
Method: Example 25: HEK TLR8 Cell Assay
as §1, with “TLR8/NFKb” for “TLR7/NFKb”, “(30” for “(10”

IC50 (TLR7) [µM] | IC50 (TLR8) [µM] | SMILES
< 1 | 1 to 10 | Cc1ccc(N2C[C@@H](C)[C@@H](NC(=O)CC3(F)CCNCC3)C2)c2cccnc12 [Compound 41, 2-(4-fluoropiperidin-4-yl)-N-[(3R,4R)-4-methyl-1-(8-methylquinolin-5-yl)pyrrolidin-3-yl]acetamide]
> 10 | > 10 | NC1CN(c2ccc(C(F)(F)F)c3ncccc23)CC1F (single isomer, unassigned) [Compound 50]
> 10 | > 10 | CC(C)[C@@H](O)C(=O)N[C@H]1CN(c2ccc(C(F)(F)F)c3ncccc23)C[C@H]1C [Compound 32, (2R)-2-hydroxy-3-methyl-N-[(3R,4R)-4-methyl-1-[8-(trifluoromethyl)quinolin-5-yl]pyrrolidin-3-yl]butanamide]
> 10 | > 10 | Cc1ccc(N2C[C@@H](C)[C@@H](N)C2)c2cccnc12 [Compound 33, (3R,4R)-4-methyl-1-(8-methylquinolin-5-yl)pyrrolidin-3-amine]
< 1 | 1 to 10 | Cc1ccc(N2C[C@@H](C)[C@@H](NC(=O)CC3CCN(C)C3)C2)c2cccnc12 (single isomer, unassigned) [Compound 37]
1 to 10 | > 10 | Cc1ncc(N2C[C@@H](C)[C@@H](NC(=O)CC3CN(C)C3)C2)c2cccnc12 [Compound 53, 2-(1-methyl-azetidin-3-yl)-N-[(3R,4R)-4-methyl-1-(8-methyl-[1,7]naphthyridin-5-yl)-pyrrolidin-3-yl]-acetamide]
1 to 10 | 1 to 10 | Cc1ccc(N2C[C@@H](C)[C@@H](NC(=O)CC3CCCN(C)C3)C2)c2cccnc12 (single isomer, unassigned) [Compound 35]
< 1 | 1 to 10 | Cc1ccc(N2C[C@@H](C)[C@@H](NC(=O)CC3CCCN(C)C3)C2)c2cccnc12 (single isomer, unassigned) [Compound 36]
> 10 | > 10 | Cc1ccc(N2C[C@@H](C)[C@@H](NC(=O)C(O)C3CC3)C2)c2cccnc12 (single isomer, unassigned) [Compound 45]
1 to 10 | > 10 | Cc1ccc(N2C[C@@H](C)[C@@H](NC(=O)CN3CCOCC3)C2)c2cccnc12 [Compound 39, N-[(3R,4R)-4-methyl-1-(8-methylquinolin-5-yl)pyrrolidin-3-yl]-2-(morpholin-4-yl)acetamide]
> 10 | > 10 | NC1CN(c2ccc(C(F)(F)F)c3ncccc23)CC1F (single isomer, unassigned) [Compound 49]
1 to 10 | > 10 | Cc1ccc(N2C[C@@H](C)[C@@H](NC(=O)C(O)C3CC3)C2)c2cccnc12 (single isomer, unassigned) [Compound 46]

Continued, compound first:

SMILES | IC50 (TLR7) [µM] | IC50 (TLR8) [µM]
CC1CN(c2ccc(C#N)c3nccnc23)CC1N (stereo not drawn) [Compound 56, 8-(3-Amino-4-methyl-pyrrolidin-1-yl)-quinoxaline-5-carbonitrile hydrochloride] | < 1 | < 1
C[C@@H]1CN(c2ccc(C(F)(F)F)c3ncccc23)C[C@@H]1NC(=O)CC1CCN(C)CC1 [Compound 18, N-[(3R,4R)-4-methyl-1-[8-(trifluoromethyl)quinolin-5-yl]pyrrolidin-3-yl]-2-(1-methylpiperidin-4-yl)acetamide] | < 1 | < 1
C[C@@H]1CN(c2ccc(C#N)c3nccnc23)C[C@@H]1NC(=O)CC1CCCN(C)C1 (single isomer, unassigned) [Compound 3] | < 1 | < 1
C[C@@H]1CN(c2ccc(C(F)(F)F)c3ncccc23)C[C@@H]1NC(=O)C(O)C1CC1 (single isomer, unassigned) [Compound 30] | 1 to 10 | 1 to 10
C[C@@H]1CN(c2ccc(C(F)(F)F)c3ncccc23)C[C@@H]1NC(=O)C(O)C1CC1 (single isomer, unassigned) [Compound 29] | 1 to 10 | > 10
CC(C)[C@H](O)C(=O)N[C@H]1CN(c2ccc(C#N)c3nccnc23)C[C@H]1C [Compound 15, (2S)—N-[(3R,4R)-1-(8-cyanoquinoxalin-5-yl)-4-methylpyrrolidin-3-yl]-2-hydroxy-3-methylbutanamide] | 1 to 10 | 1 to 10
C[C@@H]1CN(c2ccc(C#N)c3nccnc23)C[C@@H]1NC(=O)CC1(F)CCNCC1 [Compound 9, N-[(3R,4R)-1-(8-cyanoquinoxalin-5-yl)-4-methylpyrrolidin-3-yl]-2-(4-fluoropiperidin-4-yl)acetamide] | < 1 | < 1
C[C@@H]1CN(c2ccc(C#N)c3nccnc23)C[C@@H]1NC(=O)CC1CCN(C)CC1 [Compound 2, N-[(3R,4R)-1-(8-cyanoquinoxalin-5-yl)-4-methylpyrrolidin-3-yl]-2-(1-methylpiperidin-4-yl)acetamide] | < 1 | < 1
C[C@@H]1CN(c2ccc(C(F)(F)F)c3ncccc23)C[C@@H]1N [Compound 17, (3R,4R)-4-methyl-1-[8-(trifluoromethyl)quinolin-5-yl]pyrrolidin-3-amine] | 1 to 10 | > 10
C[C@@H]1CN(c2ccc(C#N)c3nccnc23)C[C@@H]1NC(=O)CN1CCOCC1 [Compound 7, N-[(3R,4R)-1-(8-cyanoquinoxalin-5-yl)-4-methylpyrrolidin-3-yl]-2-(morpholin-4-yl)acetamide] | 1 to 10 | 1 to 10
C[C@@H]1CN(c2ccc(C#N)c3nccnc23)C[C@@H]1NC(=O)CC1CCN(C)CC1(F)F (single isomer, unassigned) [Compound 11] | < 1 | < 1
C[C@@H]1CN(c2ccc(C#N)c3nccnc23)C[C@@H]1NC(=O)C(O)C1CC1 (single isomer, unassigned) [Compound 13] | 1 to 10 | > 10
